Article PMC11655547, “Dual functions of silibinin in attenuating aortic dissection via regulating iron homeostasis and endoplasmic reticulum stress against ferroptosis” (Cell Death & Disease, 2024)

Molecular target: T1, HMOX1 (heme oxygenase 1) (Homo sapiens, UniProt P09601)
T1 sequence (P09601 1-288): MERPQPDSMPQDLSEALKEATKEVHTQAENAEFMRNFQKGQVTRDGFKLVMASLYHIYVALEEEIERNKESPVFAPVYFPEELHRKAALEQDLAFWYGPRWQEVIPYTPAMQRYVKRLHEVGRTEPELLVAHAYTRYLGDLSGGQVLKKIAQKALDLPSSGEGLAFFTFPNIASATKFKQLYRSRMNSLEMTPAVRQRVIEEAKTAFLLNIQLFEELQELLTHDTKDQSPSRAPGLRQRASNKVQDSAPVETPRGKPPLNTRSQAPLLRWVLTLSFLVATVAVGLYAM
Experiment: SPR ([…] SIL); supported by CETSA and DARTS
Type: binding

Kd: 46 µM
Compound: COc1cc(C2Oc3cc([C@H]4Oc5cc(O)cc(O)c5C(=O)[C@@H]4O)ccc3OC2CO)ccc1O (stereo partly shown) [SIL, Silibinin]
